Experimental data taken from patent publication US7220755B2, “42-O-alkoxyalkyl rapamycin derivatives and compositions comprising same” (Biosensors International Group, Ltd., priority 2003, dated 2007).
Entries after “also recorded” stand apart in the source; their conditions may differ.

Tests used:
[1] = system: pig coronary artery (restenosis after overstretch injury); experiment: Pig coronary artery overstretch injury model with drug-eluting stents; type: in vivo; conditions: for Diameter stenosis: lower score indicates higher efficacy
Experimental: In another study, stents carrying 42-O-(2-ethoxyethyl) rapamycin in the form of a polymer (poly-dl-lactic acid) coating were prepared for insertion into pigs with a vessel overstretch injury to the coronary artery. Comparative and control stents includes bare metal stents, stents having a polymer coating of poly-dl-lactic acid absent drug, stents carrying rapamycin in a poly-dl-lactic acid polymer coating, and stents carrying everolimus in a poly-dl-lactic acid polymer coating. The stents were inserted into vessels which seriously injured (averaging approximately 36% overstretch injury of the vessel) using an angioplasty balloon. […] In this way, it was possible to assess the relative effectiveness of the various test compounds presented to the vessels on the same metal stent/polymer platform. At the time of insertion, the extent of overstretch was recorded as a percent balloon/artery (B/A) ratio.

[2] = In vitro release rate of drug from polymer-coated stents into ethanol-water bath; type: physicochemical; conditions: at 96 hours; unstirred ethanol-water bath at 37° C.; poly-dl-lactic acid coated stents, average drug load 230 μg
Experimental: The in vitro release rate of drug from the stents into an unstirred, ethanol-water bath at 37° C. was measured and the results are shown in FIG. 4. The six curves in FIG. 4 correspond to six stents carrying a poly-dl-lactic acid polymer loaded with 42-O-(2-ethoxyethyl) rapamycin. Each stent held between about 224–235 μg of drug, with an average drug load of 230 μg. The polymer-drug coated stents were sterilized at 25 KGy or at 27.5 KGy prior to measuring the release rate.
100 mg poly (dl-lactide) was dissolved into 2 mL acetone at room temperature. 5 mg 42-O-(2-ethoxyethyl) rapamycin was placed in a vial and 100 μL lactide solution added. A microprocessor-controlled syringe pump was used to precision dispense 4.5 μL of the drug containing poly-dl-lactide solution to the outer surface of a metal S-Stent (available from Biosensors International Inc, Newport Beach, Calif.).

[3] = system: porcine smooth muscle cells; experiment: In vitro potency: growth suppression of smooth muscle cell cultures (porcine); type: cell-based; conditions: over five orders of magnitude concentration
[4] = system: human smooth muscle cells; experiment: In vitro potency: growth suppression of smooth muscle cell cultures (human); type: cell-based; conditions: FIG. 2, over five orders of magnitude concentration
Experimental: The ability of the cell culture to reproduce was assessed after drug exposure by addition of a colored reagent which causes a color change in the surviving cells, followed by cell cytometry. The ability of the cells to migrate was assessed when cells from the culture moved through a porous membrane barrier adjacent the culture, and again by staining and cell cytometry. The results of these tests are shown in FIG. 2 for human smooth muscle cells.

[5] = system: pig coronary arteries (restenosis); experiment: 30-day implantation of drug-eluting stents in pig coronary arteries (late loss vs injury score); conditions: 30 days in pig vessels; for intercept of the zero injury (late loss) / neointimal response to injury (slope of the regression line of late loss vs injury score): FIG. 10
Experimental: After preparation of the stents having a polymer-drug coating, they were implanted, as described in Example 5, into pigs for a thirty day period.
As described in Example 5, nine stents eluting 42-O-(2-ethoxyethyl) rapamycin from a polymer layer of poly-lactic acid were implanted in pigs and six control, bare metal stents were implanted. […] Quantitative coronary angiography was performed to measure the vessel lumen diameter immediately before and after stent placement and also 30 days later just prior to the follow-up angiogram taken at animal sacrifice. […] Percent stenosis (% stenosis) was determined from the measurements as: % Stenosis=[(RVD−MLD)/RVD]×100 where MLD is minimum lumen diameter and RVD is distal and proximal reference vessel diameter. The stent to artery ratio was also calculated from these measurements. The angiographic percent stenosis was calculated from the measurements of minimum lumen diameter obtained at the follow-up angiogram.
The photographs in FIGS. 5–9 permit determination via planimetry of the area of new tissue inside the stent after 30 days in vivo. The average thickness of new tissue formed inside the stent for each implant was determined and plotted against an injury score, also determined after the 30 day test period. A least-squares linear regression analysis of the data provides a sensitive method to compare the therapeutic benefit of different stent compositions.
The degree of vascular injury was also quantified by assigning an “injury score” based on the amount and length of tear of the different wall structures. The degree of injury was calculated as follows: • 0=intact internal elastic lamina • 1=ruptured internal elastic lamina with exposure to superficial medial layers (minor injury) • 2=ruptured internal elastic lamina with exposure to deeper medial layers (medial dissection) • 3=ruptured external elastic lamina with exposure to the adventitia. The mean injury score for each arterial segment was calculated by dividing the sum of injury scores at each stent strut site by the total number of stent struts in the proximal, middle, and distal stent sections using the method described by Schwartz et al. (J. Am. Coll. Cardiol., 19:267–274 (1992)).
After analysis of the late loss and injury scores, the average late loss as a function of injury score was plotted for the test stents in each animal. […] The stents were in place in the vessel for 30 days.
Three days prior to insertion of stents each animal received 650 mg aspirin, 500 mg ticlopidine daily, and 120 mg verapamil daily. Aspirin (325 mg) daily was given throughout the duration of the study. The animals were fasted twelve hours prior to stent placement.
For stent placement, each animal was immobilized with an intramuscular injection of 0.5 mg/kg acepromazine, 20 mg/kg ketamine, and 0.05 mg/kg atropine.

[6] = cited from earlier work
[7] = drug load 225 μg, polymer coat 225 μg, stent length 15 mm
[8] = high dose, drug load 325 μg, polymer coat 1300 μg, 6 months
[9] = high dose, drug load 325 μg, polymer coat 1300 μg, 28 days
[10] = low dose, drug load 180 μg, polymer coat 1300 μg
[11] = med. dose, drug load 275 μg, polymer coat 640–780 μg

Row | Compound | intercept of the zero injury (late loss) [5] [mm] | neointimal response to injury (slope of the regression line of late loss vs injury score) [5] [mm/injury score increment] | Mean lumen loss [1, 9] [mm] | Neointimal area [1, 9] [mm^2] | Diameter stenosis [1, 9] [%] | Mean lumen loss [1, 10] [mm] | Neointimal area [1, 10] [mm^2] | Diameter stenosis [1, 10] [%] | also measured
1 | CCOCCO[C@@H]1CC[C@@H](C[C@@H](C)[C@@H]2CC(=O)[C@H](C)/C=C(\C)[C@@H](O)[C@@H](OC)C(=O)[C@H](C)C[C@H](C)/C=C/C=C/C=C(\C)[C@@H](OC)C[C@@H]3CC[C@@H](C)[C@@](O)(O3)C(=O)C(=O)N3CCCC[C@H]3C(=O)O2)C[C@H]1OC [42-O-(2-ethoxyethyl) rapamycin] | 0.126 | 0.83 | – | – | – | – | – | – | mean lumen late loss and percent diameter stenosis, comparison with the other stents ([1]; compared to rapamycin, everolimus, bare metal and polymer-coated stents): lowest mean lumen late loss and percent diameter stenosis; Mean lumen loss [1, 7]: 0.62 mm; Neointimal area [1, 7]: 1.30 mm^2; Diameter stenosis [1, 7]: 14.8%; drug load released into the bath [2]: less than half of the drug load released; inhibition of growth of smooth muscle cells [3]: effectively inhibited growth of smooth muscle cells; inhibition of growth of smooth muscle cells [4]: effectively inhibited growth of smooth muscle cells; also recorded: inhibited cellular growth as effectively as 42-O-hydroxy heptyl rapamycin (diamonds) or rapamycin; neointimal thickness at 30 days (late loss), comparison with other stents ([5]; FIGS. 10-11): lower neointimal thickness at 30 days; also recorded: therapeutic effect when compared to bare, metal stents
2 | COC1CC2CCC(C)C(O)(O2)C(=O)C(=O)N2CCCCC2C(=O)OC(C(C)CC2CCC(OCCCCCCCO)C(OC)C2)CC(=O)C(C)C=C(C)C(O)C(OC)C(=O)C(C)CC(C)C=CC=CC=C1C (stereo not shown) [42-O-hydroxy heptyl rapamycin] | 0.130 | 0.126 | – | – | – | – | – | – | –
3 | CO[C@H]1C[C@@H]2CC[C@@H](C)[C@@](O)(O2)C(=O)C(=O)N2CCCC[C@H]2C(=O)O[C@H]([C@H](C)C[C@@H]2CC[C@@H](OCCO)[C@H](OC)C2)CC(=O)[C@H](C)/C=C(\C)[C@@H](O)[C@@H](OC)C(=O)[C@H](C)C[C@H](C)/C=C/C=C/C=C/1C [everolimus] | – | – | 0.84 | 3.54 | 38.0 | 1.54 | 3.41 | 53.0 | Mean lumen loss [1, 8]: 1.15 mm; Neointimal area [1, 8]: 4.18 mm^2; Diameter stenosis [1, 8]: 68.5%; Mean lumen loss [1, 11]: 0.85 mm; Neointimal area [1, 11]: 2.97 mm^2; Diameter stenosis [1, 11]: 45.0%
4 | CO[C@H]1C[C@@H]2CC[C@@H](C)[C@@](O)(O2)C(=O)C(=O)N2CCCC[C@H]2C(=O)O[C@H]([C@H](C)C[C@@H]2CC[C@@H](O)[C@H](OC)C2)CC(=O)[C@H](C)/C=C(\C)[C@@H](O)[C@@H](OC)C(=O)[C@H](C)C[C@H](C)/C=C/C=C/C=C/1C [rapamycin] | – | – | 1.07 | 3.75 | 55.0 | 0.99 | 2.80 | 43.0 | solubility in water [6]: 20 micrograms per milliliter
